A short description of the data set: Oral absorption of encapsulated DMSO-bound heparin-DOCA in monkeys (FIG. 5). It counts as in vivo. The conditions noted are these: in buffer, 100 mg/kg (control). As to the method: DMSO-bound heparin-DOCA prepared according to the method of Example 1 was encapsulated and then administered orally to monkeys at either 5 mg/kg or 10 mg/kg dosages. As a control, heparin in buffer was orally administered at 100 mg/kg.

The values that follow come from patent US20070021325A1, “Drug formulation containing a solubilizer for enhancing solubility, absorption, and permeability” (Mediplex Corporation, priority 2005, published 2007).

In the case of heparin, the “absorption after oral administration” value was “negligible”.
